Patent US20060009425A1, “Oral formulations of paricalcitol” (priority 2004, published 2006)

What was measured:
[1] = system: serum parathyroid hormone (PTH) levels; test: Phase 3 placebo-controlled TIW study, iPTH reduction (Example 6); type: in vivo, human
Description: Methodology: This was a Phase 3, prospective, randomized, placebo-controlled, double-blind, 24-week Treatment Phase, multi-center study in CKD (Stages 3 and 4) subjects with elevated PTH levels (≧150 pg/mL). Subjects were randomized in an equal ratio (1:1) to 1 of 2 treatment groups: Paricalcitol Capsule (Group 1) and placebo (Group 2). Potential subjects underwent procedures to determine their baseline intact PTH (iPTH), calcium, and phosphorus levels for eligibility to receive treatment.
The study was performed in 4 parts: a Screening Visit, a Pre-Treatment Phase, a Treatment Phase, and a Follow-Up Phase. At the Screening Visit, subjects reviewed and signed the informed consent form prior to the conduct of any study-specific screening procedures. A spot urine sample was used to calculate calcium/creatinine ratio. A blood sample was drawn for iPTH, blood urea nitrogen (BUN), albumin and serum creatinine levels. […] The serum creatinine, BUN, and albumin values were used to calculate the subject's estimated glomerular filtration rate (eGFR) using a formula derived from the “Modification of Diet in Renal Disease” (MDRD) study. Subjects with a calculated eGFR of 15 to 60 mL/min were eligible to undergo Pre-Treatment Phase procedures. The Pre-Treatment Phase was 1 to 4 weeks. During this phase, subjects had 2 scheduled office visits. The office visits could have occurred at any time over a 4-week period but must have been at least 1 day apart. During these visits, subjects were to meet laboratory criteria regarding serum iPTH, calcium, and phosphorus levels. If the subject was unable to meet these criteria, he or she may have been re-screened once after 4 weeks. […] Subjects who satisfied inclusion and exclusion criteria after a minimum of 1 week in the Pre-Treatment Phase were eligible to enter the Treatment Phase. During the Treatment Phase, subjects were to self-administer study drug 3 times weekly, on Monday, Wednesday and Friday, for a total of 24 weeks. The initial dose was 2 or 4 mcg (depending on baseline iPTH levels). Procedures to be performed during the Treatment Phase included vital signs, chemistry and hematology, urinary pyridinoline, urinary deoxypyridinoline, serum bone-specific alkaline phosphatase, serum osteocalcin, urinalysis, spot urine for calcium/creatinine ratio, and recording of adverse events and concurrent medications. Serum iPTH, calcium, phosphorus, and albumin were measured every 2 weeks. Dose adjustments were to be made according to these chemistry results for iPTH, calcium, and phosphorus. Doses may have been increased in 2 mcg increments every 4 weeks. Dose reductions were to occur according to a protocol-specified algorithm. However, dosing could have been adjusted any time if, in the judgment of the Investigator, a risk to subject safety existed.
Efficacy: The primary efficacy endpoint was the achievement of 2 consecutive >30% decreases from baseline iPTH levels.
The secondary efficacy analyses include change and percent change from baseline analyses in iPTH and change from baseline analyses in biochemical bone activity markers.
The Intent-To-Treat population (Full Analysis Set) was defined as all randomized subjects with a baseline iPTH and at least 2 on-treatment iPTH measurements. This population was used in the primary efficacy analysis.

[2] = human, in vivo, 24 weeks
Method: Additionally, safety was assessed by the incidence of adverse events, the change from baseline in chemistry, hematology and urinalysis laboratory variables, the change from baseline in subject vital signs, and progressive changes in renal function observed via changes in eGFR.
All randomized subjects who received at least 1 dose of study drug were used in safety analyses. […] This comparison was performed using a Fisher's exact test. Secondary safety analyses were performed comparing changes/percent changes from baseline between the paricalcitol and placebo treatment groups using a one-way ANOVA with treatment group as the factor for the following variables: hematology, complete chemistry, and urinalysis variables; 24-hour urine collections, eGFR, urinary calcium/creatinine ratio, cardiovascular markers, and vital signs. Secondary safety analyses also consisted of an analysis of “treatment-emergent” adverse events (i.e., adverse events with an onset date on or after the date the first dose of study drug was taken). Adverse events were summarized by body system and COSTART term according to the COSTART V adverse event-coding dictionary. Comparisons of the percentage of subjects experiencing an adverse event between the paricalcitol and placebo treatment groups were performed using a Fisher's exact test.

iPTH = test: Combined Phase 3 studies, iPTH reduction (Examples 11, 12); type: in vivo, human; conditions: for iPTH, Mean Change from Baseline (SE) / iPTH, Mean Percent Change from Baseline (SE): last on-treatment
Method: In this example, three double-blind, placebo-controlled, multicenter studies were conducted to evaluate the safety and efficacy of paricalcitol capsule in CKD stage 3-4 subjects. Major inclusion included eGFR (MDRD formula) 15-60 mL/min/1.73 m^2, iPTH ≧150 pg/mL. A total of 220 subjects across the 3 studies were randomized and received paricalcitol capsule or placebo three times weekly (TIW, N=145) or daily (QD, N=75) for 24 weeks. […] The initial dose was 2 mcg (TIW) or 1 mcg (QD) for baseline iPTH ≦500 pg/mL and 4 mcg (TIW) or 2 mcg (QD) for baseline iPTH >500 pg/mL. Doses were titrated based on serum Ca, P and iPTH results that were measured every 2 weeks, dose increases occurred every 4 weeks.
In this example, paricalcitol capsules were evaluated in 3 double-blind, placebo-controlled multicenter studies in CKD stage 3-4 subjects with 2° HPT; 2 of these studies were conducted with TIW dosing and 1 was done with QD dosing. Subjects with eGFR (MDRD formula) 15-60 ml/min/1.73 m^2, iPTH ≧150 pg/mL, serum Ca 8.0-10.0 mg/dL and PO4≦5.2 mg/dL were randomized 1:1 and treated with paricalcitol capsule or placebo for 24 weeks. A total of 145 subjects used TIW regimen (paricalcitol: 72; placebo: 73) and 75 subjects (paricalcitol: 35; placebo: 40) used QD regimen. After the initial doses, doses were titrated based on serum Ca, P and iPTH results that were measured every 2 weeks; dose increases occurred once every 4 weeks and decreases every 2 weeks. Dosing administrations are shown below in Table 18.

[3] = Bioavailability of capsule vs intravenous formulation, end-stage renal disease on hemodialysis (Example 3); type: in vivo; conditions: human, plasma
Method: Methodology: This was a Phase I, open-label, randomized, single-dose, two-period, crossover, nonfasting study. Subjects were randomized into two sequence groups of Regimens A and B. The two nonfasting study regimens were:
The intravenous formulation contained 2-10 micrograms/milliliter of paricalcitol, 30% (v/v) propylene glycol, 20% (v/v) ethanol and 50% (v/v) water.
Both regimens were administered at the end of a regular hemodialysis session on Study Day 1, 30 minutes after a breakfast was served. […] Fourteen subjects participated in the study. […] A washout interval of at least 7 days separated the doses of the two study periods. […] Plasma concentrations of paricalcitol were determined using a validated liquid chromatography—tandem mass spectrometric assay method at Abbott Laboratories, Abbott Park, Ill. […] The lower limit of quantification of paricalcitol was 0.02 ng/mL using a 0.6 mL plasma sample.
Pharmacokinetics: The pharmacokinetic parameter values of paricalcitol were estimated using noncompartmental methods. […] The volume of distribution for intravenous administration (Vdβ) and apparent volume of distribution for oral administration (Vdβ/F) value were calculated by dividing the clearance by β. […]

**Q.** With `C[C@H](/C=C/[C@H](C)C(C)(C)O)[C@H]1CC[C@H]2/C(=C/C=C3C[C@@H](O)C[C@H](O)C3)CCC[C@]12C` [Paricalcitol, 19-nor-1α,3β,25-trihydroxy-9,10-secoergosta-5(Z); 7(E),22(E)-triene] as the compound, how does the “subjects with 4 consecutive ≧30% decreases from baseline in iPTH” value ([1]; 26/36, exploratory analysis) read?
**A.** 72%

**Q.** And the “subjects with 2 consecutive >30% decreases from baseline in iPTH” value ([1]; 33/36, TIW, 24 weeks, CKD Stages 3 and 4)?
**A.** 92%

**Q.** What about the “30% mean reduction in iPTH occurred by” value ([1]; TIW) of the same compound?
**A.** ≤ 9 Week

**Q.** What about the “mean change from baseline in iPTH at the Final Visit” value ([1]; TIW, 24 weeks) of the same compound?
**A.** -58.1 pg/mL

**Q.** And the “mean change from baseline in iPTH at the Last On-Treatment Visit” value ([1]; TIW, 24 weeks)?
**A.** -95.7 pg/mL

**Q.** What about the “percent decrease in iPTH at the Final Visit” value ([1]; TIW, 24 weeks) of the same compound?
**A.** 19.2%

**Q.** And the “percent decrease in iPTH at the Last On-Treatment Visit” value ([1]; TIW, 24 weeks)?
**A.** 33.0%

**Q.** What about the “maximum decrease from baseline in iPTH” value ([1]; observed at Week 19) of the same compound?
**A.** −46.0%

**Q.** And the “adverse event incidence: viral infection” value [2]?
**A.** 10%

**Q.** What about the “30% mean iPTH reduction by” value (iPTH; 3 Phase 3 studies combined) of the same compound?
**A.** ≤ 9 Week

**Q.** And the “efficacy in PTH suppression” value (iPTH; 24-week pivotal Phase 3 studies, CKD Stage 3 and 4 with 2° HPT)?
**A.** > 90%

**Q.** What about the “subjects with 2 consecutive 30% decreases in iPTH” value (iPTH; 92/101, 3 Phase 3 studies combined) of the same compound?
**A.** 91%

**Q.** What about the “2 consecutive 30% iPTH reduction from baseline, subjects n (%)” value (iPTH; N = 101, 3 Phase 3 studies combined) of the same compound?
**A.** 92 (91%)

**Q.** What about the “iPTH, Mean Last On-Treatment Value” (iPTH; QD Regimen, N = 35) of the same compound?
**A.** 128 pg/mL

**Q.** And the “iPTH, Mean Change from Baseline (SE)” value (iPTH; QD Regimen)?
**A.** −131 (16.7) pg/mL

**Q.** What about the “iPTH, Mean Percent Change from Baseline (SE)” value (iPTH; QD Regimen) of the same compound?
**A.** −50% (5.0)

**Q.** What about the “2 consecutive 30% iPTH reduction from baseline” value (iPTH; QD regimen) of the same compound?
**A.** 91%

**Q.** And the “30% mean iPTH reduction by” value (iPTH; QD regimen)?
**A.** ≤ 7 Week

**Q.** And the “2 consecutive 30% iPTH reduction from baseline” value (iPTH; QD regimen, listed as paricalcitol)?
**A.** 91%

**Q.** What about the “iPTH, Mean Last On-Treatment Value” (iPTH; TIW Regimen, N = 69) of the same compound?
**A.** 179 pg/mL

**Q.** What about the “iPTH, Mean Change from Baseline (SE)” value (iPTH; TIW Regimen) of the same compound?
**A.** −90 (10.7) pg/mL

**Q.** And the “iPTH, Mean Percent Change from Baseline (SE)” value (iPTH; TIW Regimen)?
**A.** −33% (3.6)

**Q.** What about the “2 consecutive 30% iPTH reduction from baseline” value (iPTH; TIW regimen) of the same compound?
**A.** 91%

**Q.** And the “30% mean iPTH reduction by” value (iPTH; TIW regimen)?
**A.** ≤ 9 Week

**Q.** And the “2 consecutive 30% iPTH reduction from baseline” value (iPTH; TIW regimen, listed as paricalcitol)?
**A.** 91%

**Q.** What about the half-life ([3]; 0.24 ug/kg, 0.24 μg/kg single dose, hemodialysis, harmonic mean ± pseudo-standard deviation) of the same compound?
**A.** ~14 h

**Q.** What about the bioavailability ([3]; 0.24 μg/kg, single oral dose, nonfasting, end-stage renal disease on hemodialysis, read-out: estimated absolute bioavailability) of the same compound?
**A.** 78.8%
